# Reference: patent US20260049085A1, “CYCLIC COMPOUNDS AND METHODS OF USING SAME” (SCHRÖDINGER, INC., priority 2022, published 2026)
# How the values were obtained:
# [1] = molecular target: T1, full-length MALT1 protein His-MALT1(1-824) (Homo sapiens, UniProt Q9UDY8); test: MALT1 protease assay (Ac-LRSR-AMC tetrapeptide substrate, fluorescence); assay type: biochemical; details: 1 nM MALT1, 25 μM Ac-LRSR-AMC, 2 h pre-incubation, 8 hr incubation at RT
# T1 construct: full-length MALT1 protein His-MALT1(1-824); His (N); made in house; host or cells: baculovirus-infected insect cells
# T1 sequence (Q9UDY8 1-824): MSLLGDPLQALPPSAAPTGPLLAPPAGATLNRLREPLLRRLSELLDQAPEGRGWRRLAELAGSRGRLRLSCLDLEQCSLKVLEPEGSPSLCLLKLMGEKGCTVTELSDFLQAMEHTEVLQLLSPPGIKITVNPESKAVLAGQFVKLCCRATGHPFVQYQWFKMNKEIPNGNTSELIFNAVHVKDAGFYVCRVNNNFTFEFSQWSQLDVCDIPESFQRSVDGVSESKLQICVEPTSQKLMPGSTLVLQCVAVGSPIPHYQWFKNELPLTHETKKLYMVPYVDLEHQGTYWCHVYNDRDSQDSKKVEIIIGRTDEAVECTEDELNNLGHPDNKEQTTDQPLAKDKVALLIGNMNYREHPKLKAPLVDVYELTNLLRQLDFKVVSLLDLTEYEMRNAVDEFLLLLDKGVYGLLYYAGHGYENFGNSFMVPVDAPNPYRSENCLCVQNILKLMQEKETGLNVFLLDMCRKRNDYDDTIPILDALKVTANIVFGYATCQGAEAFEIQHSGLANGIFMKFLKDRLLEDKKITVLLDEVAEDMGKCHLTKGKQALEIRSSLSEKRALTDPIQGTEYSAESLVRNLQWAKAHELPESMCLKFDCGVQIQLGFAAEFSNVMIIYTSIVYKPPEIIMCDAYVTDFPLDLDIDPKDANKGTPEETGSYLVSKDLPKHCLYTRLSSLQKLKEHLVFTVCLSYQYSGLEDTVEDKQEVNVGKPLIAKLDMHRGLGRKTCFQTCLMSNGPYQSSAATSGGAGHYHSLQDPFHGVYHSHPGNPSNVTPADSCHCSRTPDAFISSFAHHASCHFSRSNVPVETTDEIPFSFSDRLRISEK
# How it was run: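 Full-length His-MALT1(1-824) from baculovirus-infected insect cells (1 nM) was pre-incubated 2 h at RT with compounds (0.1% DMSO), then 25 μM Ac-LRSR-AMC added in 50 mM Tris pH 7.5, 600 mM sodium citrate, 1 mM DTT, 1 mM EDTA, 0.05% BSA. Fluorescence (ex 355/em 460 nm) read after 8 h at RT; IC50 by non-linear regression of % remaining activity.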
# [2] = test system: IL10 secretion, OCI-LY10 cells; test: Human IL10 secretion assay in OCI-LY10 cells (MSD); assay type: cell-based; details: 24 h incubation, relative to DMSO set as 100%, read-out: IL-10 Secretion IC50
# Description: IL10 is one of the cytokines that are regulated via activation of NF-kB signaling. For example, in ABC-DLBCL cell lines, the activated NF-kB signaling leads to increased IL10 secretion. Inhibition of NF-kB signaling has been shown leading to decreased IL10 secretion.
# OCI-LY10 cells were seeded in IMEM supplemented with 20% fetal bovine serum at 4.8×10^5 cells per 160 μL per well in 96-well V-bottom cell culture plates (coming, 3894), treated with 120 nL of 3-fold serial compound dilutions, starting at 4 mM. The final vehicle concentration was 0.075% DMSO in all wells. After a 24 h incubation, human IL-10 pre-coated plates (Meso Scale Discovery) were washed 3 times with PBST, and 50 μL culture medium was aspirated into the MSD plate and incubated at 4° C. overnight. The supernatant was then discarded, and the wells were washed 3 times with PBST. SULFO-TAG Anti-human IL-10 Antibody (50×) was diluted 50-fold according to the Meso Scale Protocol, then 25 μL of SULFO-TAG Anti-human IL-10 Antibody (1×) was added. After 2 h of incubation at RT, the supernatant was discarded, and the well was washed 3 times with PBST. 2× read buffer was added and the signal was read on an MSD Sector S600. The effect of a particular compound on IL10 secretion is shown relative to the effect of DMSO; set as 100%. IC50 values (nM) were determined using 4-parametric curve-fitting.
IC50 [1],IC50 [2],SMILES
< 10 nM,100 to 1000 nM,"Cn1cc([C@@]2(C)C[C@H](C(=O)Nc3cnc(-n4nccn4)c(Cl)c3)c3cnc4cc(F)nn4c32)cn1 (single isomer, unassigned) [Example 1]"
< 10 nM,10 to 100 nM,"Cn1cc([C@@]2(C)C[C@H](C(=O)Nc3cnc(-n4nccn4)c(C(F)(F)F)c3)c3cnc4cc(F)nn4c32)cn1 (single isomer, unassigned) [Example 5]"
< 10 nM,10 to 100 nM,"Cn1cc([C@@]2(C)C[C@H](C(=O)Nc3cnc(-n4nccn4)c(Cl)c3)c3cnc4cc(Cl)nn4c32)cn1 (single isomer, unassigned) [Example 8]"
< 10 nM,100 to 1000 nM,"Cn1cc([C@@]2(C)C[C@H](C(=O)Nc3cnc(-n4nccn4)c(Cl)c3)c3cnc4c(F)c(F)nn4c32)cn1 (single isomer, unassigned) [Example 12]"
< 10 nM,10 to 100 nM,"CCn1cc([C@@]2(C)C[C@H](C(=O)Nc3cnc(-n4nccn4)c(Cl)c3)c3cnc4cc(F)nn4c32)cn1 (single isomer, unassigned) [Example 20]"
< 10 nM,10 to 100 nM,"C[C@]1(c2cnn(C(F)F)c2)C[C@H](C(=O)Nc2cnc(-n3nccn3)c(Cl)c2)c2cnc3cc(F)nn3c21 (single isomer, unassigned) [Example 24]"
< 10 nM,10 to 100 nM,"C[C@]1(c2cnn(C3CC3)c2)C[C@H](C(=O)Nc2cnc(-n3nccn3)c(Cl)c2)c2cnc3cc(F)nn3c21 (single isomer, unassigned) [Example 28]"
< 10 nM,100 to 1000 nM,"Cn1ccc([C@@]2(C)C[C@H](C(=O)Nc3cnc(-n4nccn4)c(Cl)c3)c3cnc4cc(F)nn4c32)n1 (single isomer, unassigned) [Example 32]"
< 10 nM,10 to 100 nM,"Cn1cc([C@@]2(C)C[C@H](C(=O)Nc3cnc(OC(F)F)c(C#N)c3)c3cnc4cc(F)nn4c32)cn1 (single isomer, unassigned) [Example 40]"
< 10 nM,100 to 1000 nM,"Cn1ccc([C@@]2(C)C[C@H](C(=O)Nc3cnc(OC(F)F)c(C#N)c3)c3cnc4cc(F)nn4c32)n1 (single isomer, unassigned) [Example 68]"
< 10 nM,10 to 100 nM,"C[C@]1(c2ccn(C(F)F)n2)C[C@H](C(=O)Nc2cnc(-n3nccn3)c(Cl)c2)c2cnc3cc(F)nn3c21 (single isomer, unassigned) [Example 88]"
< 10 nM,100 to 1000 nM,"C[C@]1(c2cnn(C(F)F)c2)C[C@H](C(=O)Nc2cnc(OC(F)F)c(C#N)c2)c2cnc3cc(F)nn3c21 (single isomer, unassigned) [Example 92]"
< 10 nM,10 to 100 nM,"C[C@]1(c2ccn(C(F)F)n2)C[C@H](C(=O)Nc2cnc(OC(F)F)c(C#N)c2)c2cnc3cc(F)nn3c21 (single isomer, unassigned) [Example 110]"
< 10 nM,100 to 1000 nM,"CC1(c2ccn(C(F)F)n2)CC(C(=O)Nc2cnc(-c3ncc(F)cn3)c(C(F)(F)F)c2)c2cnc3cc(F)nn3c21 (single isomer, unassigned) [Example 116]"
< 10 nM,10 to 100 nM,"CC(F)(F)n1cc([C@@]2(C)C[C@H](C(=O)Nc3cnc(-n4nccn4)c(Cl)c3)c3cnc4cc(F)nn4c32)cn1 (single isomer, unassigned) [Example 120]"
< 10 nM,10 to 100 nM,"C[C@]1(c2ccn(C(F)F)n2)C[C@H](C(=O)Nc2cnc(-n3nccn3)c(C(F)(F)F)c2)c2cnc3cc(F)nn3c21 (single isomer, unassigned) [Example 124]"
10 to 100 nM,–,"C[C@]1(c2cnn(C(F)F)c2)C[C@H](C(=O)Nc2cnc(-c3ncc(F)cn3)c(Cl)c2)c2cnc3cc(F)nn3c21 [Example 134, (6S,8R)—N-(5-chloro-6-(5-fluoropyrimidin-2-yl)pyridin-3-yl)-8-(1-(difluoromethyl)-1H-pyrazol-4-yl)-2-fluoro-8-methyl-7,8-dihydro-6H-cyclopenta[e]pyrazolo[1,5-a]pyrimidine-6-carboxamide]"
